Experimental data as given in patent US20090088439A1, “Diazinane Compounds” (priority 2007, published 2009).
pEC50: −log10 of the molar value.

Experiments:
[1] = molecular target: T1, GABABR1a/GABABR2 heterodimer (Homo sapiens, UniProt O75899+Q9UBS5); test: GTPγS35 radioligand filtration-binding assay for determination of agonist potency; format: biochemical; details: membranes of CHO K1 Flp-In cells expressing GABABR1a/GABABR2; compound alone
T1 construct: expressed in transfected cells; membrane preparation
Protocol: The potency and efficacy of the compounds acting as agonists at the GABAB receptor was also determined in a automated GTPγS^35 radioligand filtration-binding assay.
(§1) The GABAB receptor is a G-protein coupled receptor. Binding of a ligand activates the receptor leading to recruitment of G-protein and a substitution of the G-protein bound GDP to GTP. The G-protein becomes active. The G-protein is inactivated by hydrolysis of GTP to GDP. G-proteins are membrane bound and therefore present in membrane preparations.
(§2) In the GTPγS^35 assay, GTP is not present but instead GTPγS^35 where one of the phosphate groups are substituted to a sulphur group which cannot be hydrolysed. Upon activation of the receptor, radiolabelled GTPγS^35 replaces the GDP. The complex cannot be inactivated and the radiolabelled complex is accumulating. At the end of the assay, the reaction mixture is filtered through a membrane-binding filter. Excess GTPγS^35 is removed by washing and the membrane bound S^35, which correlates to the degree of receptor activation, is measured with a β-Liquid Scintillation Counter.
The human GABABR1a was subcloned into pIRESneo3 (Clontech) using GABABR1a construct as a template (refseqN NM001470). GABABR2 was subcloned into pCDNA5/FRT (Invitrogen) using GABABR2 construct as a template (refseqN NM005458). The Kozak sequence GCCACC was introduced before the start codon in both constructs.
For generation of stable cell lines, CHO K1 Flp-In cells (Invitrogen) were grown in DMEM/F 12 1:1 media supplemented with 10% FBS at 37° C. in a humidified CO2-incubator. The cells were detached with Accutase and 1.5 million cells were seeded into T75 flasks. After 24 h, transfection of the cells were performed with the GABABR2 construct. For generation of cell lines expressing GABABR2, GABABR2 plasmid (1 μg) and pOG44 from Invitrogen (9 μg) were mixed with 30 μl Lipofectamine 2000 in 600 μl OptiMEM for 20 minutes. The cells were exposed to transfection medium for 5 hours and was then replaced with culture medium. After 2 days 0.5 mg/ml Hygromycin were added to culture medium. The cells were cultured for an additional 10 days to establish a stable cell mix expressing GABABR2. For generation of a cell line expressing the GABABR1a/GABABR2 heterodimer, GABABR1a plasmid DNA (8 μg) and Lipofectamine (30 μl) were mixed in 600 μl OptiMEM and incubated for 20 minutes before added to CHO-Flp-In cells expressing GABABR2. After 2 days additional selection agent was added (0.8 mg/ml Geneticin). The cells were cultured for another 10 days to generate a stable mixed population expressing the GABABR1a/GABABR2 heterodimer. The cell line was analyzed by GTPγS^35 assay with GABA as agonist.
GTPγS^35 radioligand filtration-binding assays were performed using an automated workstation at 30° C. for 1 hour in assay buffer (50 mM HEPES, 40 mM NaCl, 1 mM MgCl2×6H2O, 30 μg/mL Saponin, pH 7.4 at RT) containing 0.025 μg/μL of membrane protein (prepared from the cell line described above), 10 μM GDP and 0.55 nCi/μL GTPγS^35 in a final volume of 60 μL. The reaction was started by the addition of compounds (GABA was always included as a positive control), start concentration 100 μM dilution factor 3. The reaction was terminated and membranes collected by addition of ice-cold wash buffer (50 mM Tris-HCl, 5 mM MgCl2×6H2O, 50 mM NaCl, pH 7.4 at 4° C.) followed by rapid filtration under vacuum through a MultiScreen HTS 384 FB filter plate. Repeated washing of the filters with ice-cold wash buffer washed the unbound radioligand away. The filter plates were dried for 1½-2 hours at 50° C., then 8 μL scintillation liquid was added per well followed by incubation at RT for at least 20 minutes before bound radioactivity was determined using a β-Liquid Scintillation Counter (1450 Microbeta Trilux, Wallac, Finland)
100% activation (max) is calculated as the mean value for wells containing 1 mM GABA. […]

[2] = molecular target: T2, GABAB(1A,2) receptor heterodimer (Homo sapiens, UniProt O75899+Q9UBS5); test: GTPγS35 radioligand filtration-binding assay for determination of PAM potency; format: biochemical; details: membranes of CHO-K1 cells expressing GABABR1a/GABABR2; concentration required to reduce GABA's EC50 by 50%; PAM at 10, 1, 0.1 and 0.01 μM; read-out: Mean (EC50 derived) PAM EC50
T2 construct: expressed in transfected cells; membrane preparation
From the text: The effect of GABA in an automated GTPγS^35 radioligand filtration-binding assay in CHO cells expressing the GABAB(1A,2) receptor heterodimer was studied in the presence or absence of the positive allosteric modulator test compounds. […]
as §1, §2
GABABR1a and GABABR2 were cloned from human brain cDNA and subcloned into pCI-Neo (Promega) and pALTER-1 (Promega), respectively.
In order to optimise the Kozak consensus sequence of GABABR2, in situ mutagenesis was performed using the Altered Sites Mutagenesis kit according to manufacturer's instruction (Promega) with the following primer,
5′-[…]-3′. The optimised GABABR2 was then restricted from pALTER-1 with Xho I+Kpn I and subcloned into the mammalian expression vector pcDNA3.1(−)/Zeo (Invitrogen) to produce the final construct, pcDNA3.1(−)/Zeo-GABABR2.
For generation of stable cell lines, CHO-K1 cells were grown in Nut mix F-12 (Ham) media supplemented with 10% FBS, 100 U/ml Penicillin and 100 μg/ml Streptomycin at 37° C. in a humidified CO2-incubator. The cells were detached with 1 mM EDTA in PBS and 1 million cells were seeded in 100 mm petri dishes. After 24 hours the culture media was replaced with OptiMEM and incubated for 1 hour in a CO2-incubator.
For generation of a cell line expressing the GABABR1a/GABABR2 heterodimer, GABABR1a plasmid DNA (4 μg) GABABR2 plasmid DNA (4 μg) and lipofectamine (24 μl) were mixed in 5 ml OptiMEM and incubated for 45 minutes at room temperature. The cells were exposed to the transfection medium for 5 hours, which then was replaced with culture medium. The cells were cultured for an additional 10 days before selection agents (300 μg/ml hygromycin and 400 μg/ml geneticin) were added. Twenty-four days after transfection, single cell sorting into 96-well plates by flow cytometry was performed using a FACS Vantage SE (Becton Dickinson, Palo Alto, Calif.). After expansion, the GABAB receptor functional response was tested by measuring the GABAB receptor dependent release of intracellular calcium in a fluorescence imaging plate reader (FLIPR). The clone with the highest functional response was collected, expanded and then subcloned by single cell sorting. The clonal cell line with the highest peak response in the FLIPR was used in the present study.
GTPγS^35 radioligand filtration-binding assays were performed using an automated workstation at 30° C. for 1 hour in assay buffer (50 mM HEPES, 40 mM NaCl, 1 mM MgCl2×6H2O, 30 μg/mL Saponin, pH 7.4 at RT) containing 0.025 μg/μL of membrane protein (prepared from the cell line described above), 10 μM GDP and 0.55 nCi/μL GTPγS^35 in a final volume of 60 μL. The reaction was started by the addition of serially diluted GABA (final start concentration 1 mM dilution factor 3) in the presence or absence of four concentrations (final conc 10, 1, 0.1 and 0.01 μM) of PAM. The reaction was terminated and membranes collected by addition of ice-cold wash buffer (50 mM Tris-HCl, 5 mM MgCl2×6H2O, 50 mM NaCl, pH 7.4 at 4° C.) followed by rapid filtration under vacuum through a MultiScreen HTS 384 FB filter plate. […]

T2 sequence (Q9UBS5 15-961 limits assumed): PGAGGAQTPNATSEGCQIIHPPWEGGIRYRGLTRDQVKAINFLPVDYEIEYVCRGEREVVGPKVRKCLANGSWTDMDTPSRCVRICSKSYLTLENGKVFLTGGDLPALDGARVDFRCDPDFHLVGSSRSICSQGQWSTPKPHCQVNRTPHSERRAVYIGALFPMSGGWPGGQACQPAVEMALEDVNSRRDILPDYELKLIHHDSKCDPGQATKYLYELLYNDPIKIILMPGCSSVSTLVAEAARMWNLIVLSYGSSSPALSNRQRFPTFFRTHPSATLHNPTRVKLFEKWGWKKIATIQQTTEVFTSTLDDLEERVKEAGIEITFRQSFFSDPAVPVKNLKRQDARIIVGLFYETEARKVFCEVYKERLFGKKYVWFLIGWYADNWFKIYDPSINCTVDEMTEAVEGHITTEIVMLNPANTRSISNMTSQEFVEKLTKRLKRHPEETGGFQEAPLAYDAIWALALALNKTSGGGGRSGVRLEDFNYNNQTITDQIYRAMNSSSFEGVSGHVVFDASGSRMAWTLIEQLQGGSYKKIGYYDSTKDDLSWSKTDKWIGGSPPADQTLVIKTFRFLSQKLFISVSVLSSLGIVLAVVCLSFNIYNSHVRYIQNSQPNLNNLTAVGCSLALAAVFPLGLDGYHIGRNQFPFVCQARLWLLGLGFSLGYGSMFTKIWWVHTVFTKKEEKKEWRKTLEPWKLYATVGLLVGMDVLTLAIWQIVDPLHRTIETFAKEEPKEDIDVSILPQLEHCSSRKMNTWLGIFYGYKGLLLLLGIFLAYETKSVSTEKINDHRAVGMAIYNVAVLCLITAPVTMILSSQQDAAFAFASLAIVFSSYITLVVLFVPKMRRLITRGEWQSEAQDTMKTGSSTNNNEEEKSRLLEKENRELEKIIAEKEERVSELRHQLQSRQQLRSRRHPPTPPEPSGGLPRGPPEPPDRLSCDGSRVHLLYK
T2 sequence (O75899 42-941): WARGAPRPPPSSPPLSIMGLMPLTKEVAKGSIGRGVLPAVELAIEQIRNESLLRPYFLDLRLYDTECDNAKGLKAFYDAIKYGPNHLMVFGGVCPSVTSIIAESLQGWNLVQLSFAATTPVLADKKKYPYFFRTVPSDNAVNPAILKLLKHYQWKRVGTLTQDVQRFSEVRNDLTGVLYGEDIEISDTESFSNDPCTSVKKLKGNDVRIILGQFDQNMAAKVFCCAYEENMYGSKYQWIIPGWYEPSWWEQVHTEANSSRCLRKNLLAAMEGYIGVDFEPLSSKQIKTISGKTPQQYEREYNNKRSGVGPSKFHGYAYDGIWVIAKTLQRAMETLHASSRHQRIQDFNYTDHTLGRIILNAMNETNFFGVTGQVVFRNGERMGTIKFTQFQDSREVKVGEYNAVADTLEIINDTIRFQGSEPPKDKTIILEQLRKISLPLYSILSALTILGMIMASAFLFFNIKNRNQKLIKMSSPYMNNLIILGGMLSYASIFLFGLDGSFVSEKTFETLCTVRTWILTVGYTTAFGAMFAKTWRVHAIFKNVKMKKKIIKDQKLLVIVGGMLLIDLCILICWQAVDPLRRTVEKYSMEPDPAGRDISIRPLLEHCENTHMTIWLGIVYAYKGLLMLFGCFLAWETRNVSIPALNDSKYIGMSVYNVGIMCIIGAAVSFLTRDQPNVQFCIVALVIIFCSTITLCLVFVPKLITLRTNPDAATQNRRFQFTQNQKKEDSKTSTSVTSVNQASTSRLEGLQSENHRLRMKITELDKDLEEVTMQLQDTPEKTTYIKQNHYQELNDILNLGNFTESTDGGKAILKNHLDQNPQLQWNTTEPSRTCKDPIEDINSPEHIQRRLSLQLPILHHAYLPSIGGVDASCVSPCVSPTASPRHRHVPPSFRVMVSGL
T1 sequence (Q9UBS5 15-961 limits assumed): as the sequence (Q9UBS5 15-961 limits assumed) above
T1 sequence (O75899 42-941): as the sequence (O75899 42-941) above

Compound | pEC50 [1] | pEC50 [2]
CCCn1c(=O)n(Cc2ccc(Cl)cc2)c(=O)c2nc3c(nc21)C(C)CC3C (mixture of isomers) [Example 12, 3-(4-chlorobenzyl)-6,8-dimethyl-1-propyl-7,8-dihydro-1H-cyclopenta[g]pteridine-2,4(3H,6H)-dione] | 5.85 | –
COc1ccc(Cn2c(=O)n(Cc3ccc(Cl)cc3)c(=O)c3nccnc32)c(OC)c1 [Example 1, 3-(4-chlorobenzyl)-1-(2,4-dimethoxybenzyl)pteridine-2,4(1H,3H)-dione] | – | 5.22
CCCn1c(=O)n(Cc2ccc(Cl)cc2)c(=O)c2nccnc21 [Example 2, 3-(4-chlorobenzyl)-1-propylpteridine-2,4(1H,3H)-dione] | – | 5.37
C[Si](C)(C)CCn1c(=O)n(Cc2ccc(Cl)cc2)c(=O)c2nccnc21 [Example 3, 3-(4-chlorobenzyl)-1-[2-(trimethylsilyl)ethyl]pteridine-2,4(1H,3H)-dione] | – | 6.22
O=c1c2nccnc2n(CC2CCCCC2)c(=O)n1Cc1ccc(Cl)cc1 [Example 4, 3-(4-chlorobenzyl)-1-(cyclohexylmethyl)pteridine-2,4(1H,3H)-dione] | – | 6.22
CC(C)(C)C(=O)Cn1c(=O)n(Cc2ccc(Cl)cc2)c(=O)c2nccnc21 [Example 5, 3-(4-chlorobenzyl)-1-(3,3-dimethyl-2-oxobutyl)pteridine-2,4(1H,3H)-dione] | – | 5.54
O=c1c2nccnc2n(Cc2ccccc2)c(=O)n1Cc1ccc(Cl)cc1 [Example 7, 1-benzyl-3-(4-chlorobenzyl)pteridine-2,4(1H,3H)-dione] | – | 5.29
O=c1c2nccnc2n(Cc2ccc(Cl)cc2)c(=O)n1Cc1ccc(Cl)cc1 [Example 8, 1,3-bis(4-chlorobenzyl)pteridine-2,4(1H,3H)-dione] | – | 5.62
COc1ccc(Cn2c(=O)n(Cc3ccc(Cl)cc3)c(=O)c3nccnc32)cc1 [Example 9, 3-(4-chlorobenzyl)-1-(4-methoxybenzyl)pteridine-2,4(1H,3H)-dione] | – | 5.15
O=C(c1ccccc1)c1ccc(Cn2c(=O)n(Cc3ccc(Cl)cc3)c(=O)c3nccnc32)cc1 [Example 10, 1-(4-benzoylbenzyl)-3-(4-chlorobenzyl)pteridine-2,4(1H,3H)-dione] | – | 6.10
O=c1c2nccnc2n(CCc2ccccc2)c(=O)n1Cc1ccc(Cl)cc1 [Example 11, 3-(4-chlorobenzyl)-1-(2-phenylethyl)pteridine-2,4(1H,3H)-dione] | – | 5.89
CCCn1c(=O)n(Cc2ccc(Cl)cc2)c(=O)c2nc(CC)c(CC)nc21 [Example 13, 3-(4-chlorobenzyl)-6,7-diethyl-1-propylpteridine-2,4(1H,3H)-dione] | 6.10 | –

Now from value to compound:

pEC50 [1] | pEC50 [2] | Compound
5.66 | – | 6-tert-butyl-3-(4-chlorobenzyl)-1-propylpteridine-2,4(1H,3H)-dione and 7-tert-butyl-3-(4-chlorobenzyl)-1-propylpteridine-2,4(1H,3H)-dione [Example 23]
5.80 | – | C=CCn1c(=O)n(Cc2ccc(Cl)cc2)c(=O)c2nc3c(nc21)CCCC3 [Example 14, 1-allyl-3-(4-chlorobenzyl)-6,7,8,9-tetrahydrobenzo[g]pteridine-2,4(1H,3H)-dione]
6.00 | – | N#Cc1cccc(Cn2c(=O)n(Cc3ccc(Cl)cc3)c(=O)c3nc4c(nc32)CCCC4)c1 [Example 16, 3-{[3-(4-chlorobenzyl)-2,4-dioxo-3,4,6,7,8,9-hexahydrobenzo[g]pteridin-1(2H)-yl]methyl}benzonitrile]
5.80 | – | O=c1c2nc3c(nc2n(CCn2cccc2)c(=O)n1Cc1ccc(Cl)cc1)CCCC3 [Example 17, 3-(4-chlorobenzyl)-1-[2-(1H-pyrrol-1-yl)ethyl]-6,7,8,9-tetrahydrobenzo[g]pteridine-2,4(1H,3H)-dione]
6.30 | – | CC(C)(C)C(=O)Cn1c(=O)n(Cc2ccc(Cl)cc2)c(=O)c2nc3c(nc21)CCCC3 [Example 18, 3-(4-chlorobenzyl)-1-(3,3-dimethyl-2-oxobutyl)-6,7,8,9-tetrahydrobenzo[g]pteridine-2,4(1H,3H)-dione]
5.89 | – | O=c1c2nc3c(nc2n(CC(O)C(F)(F)F)c(=O)n1Cc1ccc(Cl)cc1)CCCC3 (centres unmarked) [Example 19, 3-(4-chlorobenzyl)-1-(3,3,3-trifluoro-2-hydroxypropyl)-6,7,8,9-tetrahydrobenzo[g]pteridine-2,4(1H,3H)-dione]
5.11 | – | CCCn1c(=O)n(Cc2ccc(Cl)cc2)c(=O)c2c1nc1c([n+]2[O-])CCCC1 [Example 21, 3-(4-chlorobenzyl)-1-propyl-6,7,8,9-tetrahydrobenzo[g]pteridine-2,4(1H,3H)-dione 5-oxide]
5.43 | – | CCCn1c(=O)n(Cc2ccc(Cl)cc2)c(=O)c2nc3c(nc21)CCC3 [Example 22, 3-(4-chlorobenzyl)-1-propyl-7,8-dihydro-1H-cyclopenta[g]pteridine-2,4(3H,6H)-dione]
